Target: T1, human CXCR2 receptor (Homo sapiens, UniProt P25025)
T1 construct: purchased Biosignal Packard Inc; host or cells: CHO-K1 membranes
T1 sequence (P25025 1-360): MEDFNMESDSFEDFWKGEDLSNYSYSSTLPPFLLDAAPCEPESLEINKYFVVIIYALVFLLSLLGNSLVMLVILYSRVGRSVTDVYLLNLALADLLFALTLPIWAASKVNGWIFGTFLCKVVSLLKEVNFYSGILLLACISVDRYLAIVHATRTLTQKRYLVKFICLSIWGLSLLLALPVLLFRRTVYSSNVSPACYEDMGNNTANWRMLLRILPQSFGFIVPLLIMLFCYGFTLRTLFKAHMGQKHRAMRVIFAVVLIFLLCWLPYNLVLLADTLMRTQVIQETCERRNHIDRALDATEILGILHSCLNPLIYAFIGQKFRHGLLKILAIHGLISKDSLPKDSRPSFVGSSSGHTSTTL
Test: [35S]-GTPγS binding assay for human CXCR2 receptor using SPA technology
Assay type: biochemical
Details: CHO-K1 membranes expressing human CXCR2; 100 nM IL-8; read-out: IC50 in the [35S]-GPTγS binding assay
From the text: [^35S]-GTPγS Binding Assay for Human CXCR2 Receptor using SPA Technology
[^35S]-GTPγS (with specific activity 1082 Ci/mmol) and wheat germ agglutinin poly vinyl toluene scintillation proximity beads are purchased from Amersham Pharmacia Biotech. The Chinese hamster ovary cell (CHO-K1) membranes expressing human CXCR2 receptors are purchased from Biosignal Packard Inc. All other chemicals are of analytical grade. White non-binding surface 96 well Optiplate™ microplates are obtained from Packard. Recombinant human IL-8 is synthesised, cloned and expressed in Escherichia coli as described previously (Lindley I, et al., Proc. Natl. Acad. Sci., 1988, 85(23):9199). The assay is performed in duplicate in 96 well Optiplate™ microplate in a final volume of 250 μl per well. Compounds are diluted in DMSO (0.5% final concentration) and incubated in 20 mM HEPES buffer pH 7.4 containing 10 mM MgCl2, 100 mM NaCl, 1 mM EDTA plus 100 nM IL-8, 50 μM GDP and […] [^35S]GTPγS per well. SPA beads (1 mg/well final concentration) were pre-mixed with the membranes (10 μg/well final concentration) in assay buffer: 20 mM HEPES buffer pH 7.4 containing 10 mM MgCl2, 100 mM NaCl, 1 mM EDTA. […] The plate is centrifuged and read on Packard TopCount™ scintillation counter, program [^35S dpm] for 1 min/well. Data are expressed as the % response to 100 nM IL-8 minus basal.

Compound | IC50 [nM]
CCC1CCCN1C(=O)C1CC1c1nc(SCc2cccc(F)c2F)nc(O)c1C#N (centres unmarked) [Example 43, 2-(2,3-Difluoro-benzylsulfanyl)-4-[2-(2-ethyl-pyrrolidine-1carbonyl)-cyclopropyl]-6-hydroxypyrimidine-5-carbonitrile] | 230
CCOC(=O)CNC(=O)[C@@H]1C[C@H]1c1nc(SCc2cccc(F)c2F)nc(O)c1C#N (relative stereo) [Example 49, Trans-({2-[5-Cyano-2-(2,3-difluoro-benzylsulfanyl)-6-hydroxy-pyrimidin-4-yl]-cyclopropanecarbonyl}-amino)-acetic acid ethyl ester] | 820

Reference: patent publication US20100063080A1, “CXCR2 inhibitors” (priority 2006, published 2010)
